# Reference: patent EP3769768A1, “COMPOUNDS USEFUL FOR THE TREATMENT OF PARKINSON S DISEASE” (priority 2019, dated 2021)
# Like-named read-outs stand apart in the source and are kept apart here.
# Experiments:
# [1] = system: lymphoblasts from G2019S LRRK2 PD patients; conditions: for Centrosomal cohesion deficits: three lymphoblast lines from G2019S LRRK2 PD patients, short-term application of LRRK2 kinase inhibitor, Figure 1A; for reversal of the cohesion deficit: five G2019S LRRK2 PD patients, dose-response
# Excerpt: Peripheral blood mononuclear cells (PBMCs) were collected and processed according to manufacturer's instructions, and lymphocytes were immortalized by infection with Epstein-Barr virus (EBV) as described. Briefly, cell lines were established from freshly isolated or cryopreserved lymphocytes using standard EBV transformation protocols which include cell separation by gradient centrifugation and lymphocyte growth enhancement by 1% (v/v) of the mitogenic phytohemagglutinin-M (PHA-M, ThermoFisher Scientific, 10576015). Cell lines were maintained in RPMI 1640 medium supplemented with 20 % fetal bovine serum, 2 % L-glutamine, 20 units/mL penicillin and 20 µg/ml streptomycin in T75 flasks in 5 % CO2 at 37 °C. Cells were maintained at a density of 10^6 cells/mL, with cell density monitored every other day using trypan blue staining.
# Coverslips (13 mm diameter) were placed into 24-well plates and coated with Cell-Tak Cell and Tissue Adhesive solution (Corning, nr. 354240) according to manufacturer's instructions. After 20 minutes incubation at room temperature, the solution was removed, and coverslips were rinsed twice with distilled water followed by air-drying. Lymphoblast cells (200,000/well) were added to dry coated coverslips, and cells attached by slight centrifugation at 690 g for 10 minutes at room temperature (without brake). Cells were fixed with 2 % paraformaldehyde (PFA) in phosphate-buffered saline (PBS) for 20 minutes at room temperature, followed by 5 min of ice-cold methanol fixation before permeabilization with 0.2% Triton-X100/PBS for 20 min. After blocking for 1 hour in 0.5% BSA (w/v) in 0.2% Triton-X100/PBS (blocking buffer), cells were incubated with primary antibodies overnight at 4 °C in blocking buffer. Primary antibodies included mouse monoclonal anti-γ-tubulin (1:1000; Abcam ab11316), rabbit polyclonal anti-pericentrin (1:1000; Abcam ab4448) or rabbit monoclonal anti-phospho-Rab10 (1:100; Abcam ab237703). The following day, coverslips were washed three times 10 minutes in 0.2% Triton-X100/PBS, followed by incubation with secondary antibodies (Alexa488-conjugated goat anti-mouse (1:1000; Invitrogen) and Alexa594-conjugated goat anti-rabbit (1:1000; Invitrogen)) in blocking buffer for 1 hour. Coverslips were washed three times in 0.2% Triton-X100/PBS, rinsed in PBS and mounted in mounting medium with DAPI (Vector Laboratories). For staining with the anti-phospho-Rab10 antibody, the methanol fixation was omitted, and 0.2% Triton-X100 was replaced by 0.1% saponin throughout. For treatment of cells with MLi2, cells were seeded on coated coverslips as described above, and incubated with or without MLi2 (generous gift of D. Alessi, University of Dundee, UK) (or DMSO as control) at the indicated concentrations for two hours at 37 °C, before attachment by slight centrifugation followed by fixation as described above.
# Images were acquired on a Leica TCS-SP5 confocal microscope using a 63X 1.4 NA oil UV objective (HCX PLAPO CS). Images were collected using single excitation for each wavelength separately, and dependent on secondary antibodies (488 nm Argon Laser line and a 498-551 nm emission band pass; 543 HeNe laser line and a 615-671 nm emission band pass; 405 nm UV diode and a 418-467 nm emission band pass). Around 30 image sections of selected areas were acquired with a step size of 0.5 µm, and z-stack images analyzed and processed using Leica Applied Systems (LAS AF6000) image acquisition software. The same laser intensity settings, exposure times and zoom were used for image acquisition of individual experiments to be quantified.
# [2] = system: sporadic PD lymphoblasts; assay: Centrosomal cohesion deficit in lymphoblasts from sporadic PD patients (immunofluorescence, confocal imaging); format: cell-based, human; conditions: subset of sporadic PD patients with deficit (not G2019S carriers); short-term application of 10 nM MLi2; Figures 4A to 4D
# Excerpt: Peripheral blood mononuclear cells (PBMCs) were collected and processed according to manufacturer's instructions, and lymphocytes were immortalized by infection with Epstein-Barr virus (EBV) as described. Briefly, cell lines were established from freshly isolated or cryopreserved lymphocytes using standard EBV transformation protocols which include cell separation by gradient centrifugation and lymphocyte growth enhancement by 1% (v/v) of the mitogenic phytohemagglutinin-M (PHA-M, ThermoFisher Scientific, 10576015). Cell lines were maintained in RPMI 1640 medium supplemented with 20 % fetal bovine serum, 2 % L-glutamine, 20 units/mL penicillin and 20 µg/ml streptomycin in T75 flasks in 5 % CO2 at 37 °C. Cells were maintained at a density of 10^6 cells/mL, with cell density monitored every other day using trypan blue staining. […]
# Images were acquired on a Leica TCS-SP5 confocal microscope using a 63X 1.4 NA oil UV objective (HCX PLAPO CS). […] Around 30 image sections of selected areas were acquired with a step size of 0.5 µm, and z-stack images analyzed and processed using Leica Applied Systems (LAS AF6000) image acquisition software. The same laser intensity settings, exposure times and zoom were used for image acquisition of individual experiments to be quantified.
Structure (SMILES),Centrosomal cohesion deficits [1],"reversal of the cohesion deficit ([1]; 1 nM MLi2, Figures 3A and 3B)","reversal of the cohesion deficit ([1]; 10 nM MLi2, Figures 3A and 3B)","Centrosomal deficits in all G2019S LRRK2 PD samples ([1]; larger sampling, individual samples, Figure 4C)","centrosomal alterations ([1]; larger sampling, short-term application of 10 nM MLi2, Figures 4A and 4B)","centrosomal cohesion deficits upon removal of kinase inhibitor ([1]; washout of inhibitor, G2019S LRRK2 PD samples, Figures 3A and 3B)",Centrosomal cohesion deficits [2]
"O=C(Nc1cccnc1)c1cc(-c2ccnc(F)c2)ccc1OCc1ccccc1 [GSK2578215A, 2-(benzyloxy)-5-(2-fluoropyridin-4-yl)-N-(pyridin-3-yl)benzamide]",could be reversed,–,–,–,–,–,–
"CC1CN(c2cc(-c3n[nH]c4ccc(OC5(C)CC5)cc34)ncn2)CC(C)O1 (centres unmarked) [MLi2, 3-(4-Pyrimidinyl) Indazole]",could be reversed,significant reversal,complete reversal,reverted by MLi2 in all cases,reverted,reverted back to the ones observed in the absence of inhibitor,reverted
